Laboratory results as given in US10473645B2, “Methods for identifying a receptor for a ligand and uses thereof” (UNIVERSITE DE GENEVE, priority 2014, dated 2019).

Assays:
Olfr169 = assay: OR transcript downregulation by RNAseq after in vivo exposure; parameters: species or system mouse; conditions: 5% odorant, 5 hours
Experimental: (§1) Animals were exposed to 5% acetophenone for 5 hours before RNA extraction (as previously described). cDNA libraries were generated with the Truseq RNA and DNA sample preparation kits after selection of polyA-containing mRNAs. Adapters for RNAseq multiplexing were added to the cDNAs. The cDNA libraries were sequenced with a HiSeq®2500 Sequencing system. 100 bp reads were mapped using Bowtie2 with a 28 bp seed. The differential gene expression analyses were performed with DESeq2. Because of the high sequence similarity between OR gene paralogs, some reads are mapped to multiple OR genes. These reads were removed from the analysis.
(§2) Mice (n=6) were exposed to 5% acetophenone or to a “neutral” control condition for 5 hours. An olfactory cDNA library corresponding to each animal was deep sequenced and the ratios of odorant receptor mRNA concentrations relative to controls were plotted (FIG. 3). […] Based on transcriptional downregulation levels observed by RNAseq following acetophenone exposure, a list of 26 candidate responsive ORs was determined (FIG. 3), that reached 74% decrease (Olfr145) or even over 80% (Olfr169) relative to controls. […] The transcript downregulation of 21 out of the 26 olfactory receptor candidates obtained by RNAseq was confirmed by qPCR.

Olfr983 = assay: as above; parameters: species or system mouse; conditions: 5% odorant, 5 hours, reduction larger than 20% = downregulated
Experimental: as §1, §2

Olfr1377 = assay: as above; parameters: species or system mouse; conditions: 5% odorant, 5 hours, reduction larger than 20% = downregulated
Experimental: as §1, §2

Olfr160 = assay: as above; parameters: species or system mouse; conditions: 5% odorant, 5 hours, reduction larger than 20% = downregulated
Experimental: as §1, §2

Olfr556 [1] = target: T1, Olfr556 (Mus musculus, UniProt B2RRG2); assay: as above; parameters: from tissue; host or cells: main olfactory epithelium of exposed mice; conditions: 5% odorant, 5 hours, reduction larger than 20% = downregulated
T1 sequence (B2RRG2 1-324): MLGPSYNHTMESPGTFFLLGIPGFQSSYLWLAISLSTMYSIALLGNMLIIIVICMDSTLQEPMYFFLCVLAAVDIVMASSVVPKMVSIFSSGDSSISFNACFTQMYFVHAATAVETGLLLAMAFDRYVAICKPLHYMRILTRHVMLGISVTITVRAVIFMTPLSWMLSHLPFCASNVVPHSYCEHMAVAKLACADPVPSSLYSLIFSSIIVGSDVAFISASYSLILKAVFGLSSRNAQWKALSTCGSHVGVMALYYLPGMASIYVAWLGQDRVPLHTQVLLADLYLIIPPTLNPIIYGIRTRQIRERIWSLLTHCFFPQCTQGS
Experimental: as §1, §2

Olfr1178 = assay: OR transcript level by RT-qPCR after in vivo odorant exposure; parameters: species or system mouse; conditions: 5% odorant, 5 hours
Experimental: (§3) In vivo exposure to odorant: Starting 48 h before experiments, mice were habituated to pure DMSO on a cotton ball. 200 μl were pipetted directly onto the cotton and placed in the cage, replacing any cotton that was already in the cage for nest-making purposes.
On the day of the experiment, mice receiving odorants were transferred to a different room, where they were exposed to a cotton ball on which 200 μl of odorant diluted in pure DMSO were deposited. Exposures started in the morning between 8 and 10 am (that is two hours after lights were on) and mice were killed and dissected between 1 and 3 pm. […]
RNA concentrations were determined using an Amersham Ultrospec® 3100 Pro spectrophotometer, and RNA quality was evaluated with an Agilent Technologies 2100 Bioanalyzer®. […]
qPCR Ct values were analyzed using an in-house developed Microsoft Excel® macro file. […] Ct values were converted to quantities relative to the maximum for each given gene. Selected reference genes were then analyzed for variance using the geNorm algorithm. […]
Adult C57BL/6 mice were exposed to 5% acetophenone for 5 hours, and the level of transcripts of odorant receptors' genes were measured by RT-qPCR on extracts of olfactory epithelia from these mice, as described in the materials and methods section.

Olfr556 [2] = target: T1, Olfr556; assay: as above; parameters: from tissue; host or cells: main olfactory epithelium of exposed mice; key to olfr556 candidate OR (RNAseq) confirmed by qPCR: The transcript downregulation of 21 out of the 26 olfactory receptor candidates obtained by RNAseq was confirmed by qPCR; false RNAseq positive candidates, namely OR candidates for which in fact mRNA was not downregulated following acetophenone exposure; conditions: for Olfr556 mRNA level relative to unexposed controls: 5% odorant, 5 hours, in vivo, RT-qPCR
Experimental: as §3
On the day of the experiment, mice receiving odorants were transferred to a different room, where they were exposed to a cotton ball on which 200 μl of odorant diluted in pure DMSO were deposited. […] […] If a number of different odorants were tested in the same experiment, a different overpressurized room would always be used for each odorant to avoid odor cross-contamination.
After odorant exposure, mice were killed by cervical dislocation and immediately decapitated. The main olfactory epithelia (MOE), were harvested in their entirety and transferred to a tube containing 600 μl of lysis buffer and β-mercaptoethanol (RNAeasy kit, Qiagen, following the manufacturer protocol) and a 0.5 cm diameter steel ball, and then put on ice. Samples were then homogenized using a FastPrep®-24 instrument (MP Biomedicals) at 6 m/s for 30 s and left on ice. RNA extraction was performed on all samples in parallel using the Qiagen RNeasy Mini® kit following the manufacturer's instructions. Two DNase treatments were performed on all samples: first using the Qiagen RNase-Free DNase Set® and then using the Life Technologies Ambion DNase I® kit. RNA samples were then aliquoted and stored at −80° C.
RNA concentrations were determined using an Amersham Ultrospec® 3100 Pro spectrophotometer, and RNA quality was evaluated with an Agilent Technologies 2100 Bioanalyzer®. Each reverse transcription was performed with 0.5 μg RNA using the Takara Primescript® kit, in a final volume of 10 μl. Primers for reverse transcription were equal mixtures of poly-T nucleotides and random hexamers. Negative controls (omitting the reverse transcriptase enzyme) were performed for each sample. 1/14th of the cDNA preparation was used for each triplicated qPCR reaction.
qPCR Ct values were analyzed using an in-house developed Microsoft Excel® macro file. Triplicate values were compared and outliers (values with a difference higher than 0.5 Ct to their nearest neighbor) were discarded. The number of conditions with an outlying value was always less than 10% of the total number of conditions. Ct values were converted to quantities relative to the maximum for each given gene. Selected reference genes were then analyzed for variance using the geNorm algorithm. All values were normalized with the olfactory tissue-specific genes Omp and Adcy3. β-Actin was used as a non-tissue-specific reference gene to control for differences in dissection between samples. […]

How did the “Olfr169 transcript decrease relative to controls (RNAseq)” value (Olfr169) turn out when `CC(=O)c1ccccc1` [acetophenone] was run?
The value was “over 80%”.

And the “Olfr983 transcript modulation (RNAseq)” value (Olfr983)?
The value was “downregulated”.

What about the “Olfr1377 transcript modulation (RNAseq)” value (Olfr1377) of the same compound?
The value was “downregulated”.

What about the “Olfr160 transcript modulation (RNAseq)” value (Olfr160) of the same compound?
The value was “downregulated”.

What about the “Olfr556 transcript modulation (RNAseq)” value (Olfr556 [1]) of the same compound?
The value was “downregulated”.

And the “Olfr1178 mRNA concentration increase, fold change” value (Olfr1178)?
Its value is 1.5 fold.

And the “olfr556 candidate OR (RNAseq) confirmed by qPCR” value (Olfr556 [2]; 5% acetophenone exposure)?
Its value is “y”.

What about the “Olfr556 mRNA level relative to unexposed controls” value (Olfr556 [2]) of the same compound?
The value was “decrease”.

What about the “Olfr556 mRNA level relative to unexposed controls” value (Olfr556 [2]; listed as Acetophenone) of the same compound?
The value was “downregulates”.
